53 compounds from ChEMBL document CHEMBL5154725, “SAR evolution towards potent C-terminal carboxamide peptide inhibitors of Zika virus NS2B-NS3 protease” (Bioorg Med Chem, 2022) can be followed below.

Structures are written as SMILES. Non-standard residues stand in square brackets, D forms with d. Residues, ends and D or L forms follow the SMILES beside them. *: point of attachment. Phe(4-CONH2) = NC(=O)c1ccc(C[C@H](N)C(=O)O)cc1; Phe(4-CH2NH2) = NCc1ccc(C[C@H](N)C(=O)O)cc1; Phe(4-NH2) = Nc1ccc(C[C@H](N)C(=O)O)cc1; Lys(Me2) = CN(C)CCCC[C@H](N)C(=O)O; Cit = NC(=O)NCCC[C@H](N)C(=O)O; NHPhenethyl = c1ccc(CCN*)cc1; hLys = NCCCCC[C@H](N)C(=O)O; Orn = NCCC[C@H](N)C(=O)O; PhAc = O=C(Cc1ccccc1)*; NHCH2CH2OH = OCCN*

The term IC50 denotes the concentration that gives 50% inhibition. A higher IC50 goes with weaker potency in that assay.

This test in a line: Inhibition of 6-His tagged-G4SG4 fused ZIKV NS2B (49 to 95 residues) R95A mutant-NS3 (1 to 170 residue) R29G mutant expressed in Escherichia coli BL21 (DE3) using Bz-Nle-K-RR-AMC substrate preincubated for 10 mins followed by substrate addition and measured after 30 mins by fluorescence assay. The arrangement: species or system Zika virus.
For the compound `NCCCC[C@H](NC(=O)Cc1ccccc1)C(=O)N[C@@H](CCCCN)C(=O)N[C@H](C(=O)NCc1ccc(O)cc1)c1ccccc1`, the IC50 turned out to be 0.37 µM. As for `CN(Cc1ccccc1)C(=O)[C@@H](NC(=O)[C@H](CCCCN)NC(=O)[C@H](CCCCN)NC(=O)Cc1ccccc1)c1ccc(OCc2ccc(C(F)(F)F)cc2)cc1`, the figure is 4.7 µM. As for `CN1CCC(CNC(=O)[C@H](CCCNC(=N)N)NC(=O)[C@H](CCCCN)NC(=O)[C@H](CCCCN)NC(=O)Cc2ccccc2)CC1`, the figure is 7.8 µM; as for `N=C(N)NCCC[C@H](NC(=O)[C@H](Cc1ccc(C(N)=O)cc1)NC(=O)[C@H](CCCCN)NC(=O)Cc1ccccc1)C(N)=O` (PhAc-Lys-[Phe(4-CONH2)]-Arg-NH2), above 100 µM; as for `N=C(N)NCCC[C@H](NC(=O)[C@H](CCCNC(N)=O)NC(=O)[C@H](CCCCN)NC(=O)Cc1ccccc1)C(N)=O` (PhAc-Lys-[Cit]-Arg-NH2), above 100 µM. `N=C(N)NCCC[C@H](NC(=O)[C@H](CCCCN)NC(=O)[C@H](CCCCN)NC(=O)Cc1ccccc1)C(=O)NCc1ccncc1` had an IC50 of 14.1 µM. As for `CN(C)CCCC[C@H](NC(=O)[C@H](CCCCN)NC(=O)Cc1ccccc1)C(=O)N[C@@H](CCCNC(=N)N)C(N)=O` (PhAc-Lys-[Lys(Me2)]-Arg-NH2), the figure is 25.1 µM; as for `N=C(N)NCCC[C@H](NC(=O)c1cccs1)C(=O)N[C@@H](CCCCN)C(=O)N[C@H](C(=O)NCc1ccccc1)c1ccc(OCc2ccc(C(F)(F)F)cc2)cc1`, 0.31 µM; as for `NCCCCC(NC(=O)Cc1ccccc1)C(=O)N[C@@H](CCCCN)C(=O)NC(C(=O)NCc1ccccc1)c1ccc(OCc2ccc(C(F)(F)F)cc2)cc1` (single isomer, unassigned), 1.12 µM. In the case of `N=C(N)NCCC[C@H](NC(=O)[C@H](CCCCN)NC(=O)[C@H](Cc1ccc(CN)cc1)NC(=O)Cc1ccccc1)C(N)=O` (PhAc-[Phe(4-CH2NH2)]-Lys-Arg-NH2) it was 8.57 µM. As for `COc1ccc(CNC(=O)[C@@H](NC(=O)[C@H](CCCCN)NC(=O)[C@H](CCCCN)NC(=O)Cc2ccccc2)c2ccc(OCc3ccc(C(F)(F)F)cc3)cc2)cc1`, the figure is 0.13 µM.

Compound `NCCCC[C@H](NC(=O)Cc1ccccc1)C(=O)N[C@@H](CCCCN)C(=O)N[C@H](C(N)=O)c1ccc(OCc2ccc(C(F)(F)F)cc2)cc1` had an IC50 of 9.2 µM. Against the preceding compound, the IC50 is about 71-fold higher. In the case of `NCCCC[C@H](NC(=O)c1ccccc1)C(=O)N[C@@H](CCCCN)C(=O)N[C@H](C(=O)NCc1ccccc1)c1ccc(OCc2ccc(C(F)(F)F)cc2)cc1` it was 0.09 µM; in that of `N#Cc1ccc(COc2ccc([C@H](NC(=O)[C@H](CCCCN)NC(=O)[C@H](CCCNC(=N)N)NC(=O)c3cccs3)C(N)=O)cc2)cc1`, 27.3 µM; in that of `N=C(N)NCCC[C@H](NC(=O)[C@H](Cc1ccc(N)cc1)NC(=O)[C@H](CCCCN)NC(=O)Cc1ccccc1)C(N)=O` (PhAc-Lys-[Phe(4-NH2)]-Arg-NH2), above 100 µM. Consider `N=C(N)NCCC[C@H](NC(=O)[C@H](CCCCN)NC(=O)[C@H](CCCCN)NC(=O)C1(c2ccccc2)CC1)C(N)=O`, for which inhibition was half-maximal at 10.1 µM (IC50).

Compound `N=C(N)NCCC[C@H](NC(=O)[C@H](CCCCN)NC(=O)[C@H](CCCCN)NC(=O)Cc1cccnc1)C(N)=O` came in with an IC50 of 4.49 µM. Take `N=C(N)NCCC[C@H](NC(=O)c1cccs1)C(=O)N[C@@H](CCCCN)C(=O)NCc1ccc(OCc2ccc(C(F)(F)F)cc2)cc1`: the IC50 came to 8.2 µM.

Take `COc1ccc(CC(=O)N[C@@H](CCCCN)C(=O)N[C@@H](CCCCN)C(=O)N[C@H](C(=O)NCc2ccccc2)c2ccc(OCc3ccc(C(F)(F)F)cc3)cc2)cc1`: half-maximal inhibition (IC50) was put at 0.27 µM. In the case of `NCCCC[C@H](NC(=O)Cc1ccc(Cl)c(Cl)c1)C(=O)N[C@@H](CCCCN)C(=O)N[C@H](C(=O)NCc1ccc(OCc2ccc(C(F)(F)F)cc2)cc1)c1ccccc1` it was 0.17 µM; in that of `N=C(N)NCCC[C@H](NC(=O)[C@H](CCCCN)NC(=O)[C@H](CCCCN)NC(=O)Cc1ccccc1)C(=O)NCCO` (PhAc-Lys-Lys-Arg-NHCH2CH2OH), 10.8 µM; in that of `CCOc1ccc([C@H](NC(=O)[C@H](CCCCN)NC(=O)[C@H](CCCNC(=N)N)NC(=O)c2cccs2)C(N)=O)cc1`, 17.9 µM. As for `N=C(N)NCCC[C@H](NC(=O)[C@H](CCCCN)NC(=O)[C@H](Cc1cccc(CN)c1)NC(=O)Cc1ccccc1)C(N)=O`, the figure is 37.5 µM; as for `NCCCC[C@H](NC(=O)Cc1ccccc1)C(=O)N[C@@H](CCCCN)C(=O)N[C@H](C(=O)NC1Cc2ccccc2C1)c1ccc(OCc2ccc(C(F)(F)F)cc2)cc1`, 2 µM; as for `NCCCC[C@H](NC(=O)CC1CCCCC1)C(=O)N[C@@H](CCCCN)C(=O)N[C@H](C(=O)NCc1ccccc1)c1ccc(OCc2ccc(C(F)(F)F)cc2)cc1`, 0.15 µM. In the case of `N=C(N)NCCC[C@H](NC(=O)[C@H](CCCCCN)NC(=O)[C@H](CCCCN)NC(=O)Cc1ccccc1)C(N)=O` (PhAc-Lys-[hLys]-Arg-NH2), the midpoint of inhibition, the IC50, lay at 2.7 µM. As for `N=C(N)NCCC[C@H](NC(=O)c1cccs1)C(=O)N[C@@H](CCCCN)C(=O)N[C@H](C(N)=O)c1ccc(OCc2ccccc2C(F)(F)F)cc1`, the figure is 7.1 µM.

Take `NCCCC[C@H](NC(=O)Cc1ccccc1)C(=O)N[C@@H](CCCCN)C(=O)N[C@H](C(=O)NCCc1ccccc1)c1ccc(OCc2ccc(C(F)(F)F)cc2)cc1`: the IC50 amounted to 0.62 µM. As for `CC(NC(=O)[C@H](CCCCN)NC(=O)[C@H](CCCNC(=N)N)NC(=O)c1cccs1)c1ccc(OCc2ccc(C(F)(F)F)cc2)cc1` (mixture of isomers), the figure is 10.9 µM; as for `NCCCC[C@H](NC(=O)Cc1ccccc1)C(=O)N[C@@H](CCCCN)C(=O)N[C@H](C(=O)NCc1ccc2c(c1)OCO2)c1ccc(OCc2ccc(C(F)(F)F)cc2)cc1`, 0.06 µM; as for `N=C(N)NCCC[C@H](NC(=O)c1cccs1)C(=O)N[C@@H](CCCCN)C(=O)N[C@H](C(N)=O)c1ccc(OCC2CCCCC2)cc1`, 10.8 µM.

`N=C(N)NCCC[C@H](NC(=O)[C@H](CC1CCNCC1)NC(=O)[C@H](CCCCN)NC(=O)Cc1ccccc1)C(N)=O` came in with an IC50 of 12.2 µM. For the compound `N=C(N)NCCC[C@H](NC(=O)c1cccs1)C(=O)N[C@@H](CCCCN)C(=O)N[C@H](C(N)=O)c1ccc(OCc2ccc3[nH]ncc3c2)cc1`, inhibition was half-maximal at 5.3 µM (IC50).

The compound `CN(Cc1ccccc1)C(=O)N[C@@H](CCCCN)C(=O)N[C@@H](CCCCN)C(=O)N[C@@H](CCCNC(=N)N)C(N)=O` had an IC50 of 7.4 µM. The IC50 values of the last two compounds are within 1.5-fold of each other. As for `N=C(N)NCCC[C@H](NC(=O)[C@H](CCCCN)NC(=O)[C@H](CCCCN)NC(=O)Cc1nccs1)C(N)=O`, the figure is 22.7 µM; as for `N=C(N)NCCC[C@H](NC(=O)c1cccs1)C(=O)N[C@@H](CCCCN)C(=O)N[C@@H](C(=O)NCc1ccccc1)c1ccc(OCc2ccc(C(F)(F)F)cc2)cc1`, 0.92 µM; as for `N=C(N)NCCC[C@H](NC(=O)[C@H](CCCCN)NC(=O)[C@H](CCCCN)NC(=O)C(F)c1ccccc1)C(N)=O` (mixture of isomers), 4.94 µM. The compound `N=C(N)NCCC[C@H](NC(=O)[C@H](CCCN)NC(=O)[C@H](CCCCN)NC(=O)Cc1ccccc1)C(N)=O` (PhAc-Lys-[Orn]-Arg-NH2) showed an IC50 of 3.9 µM.

Consider `NCCCC[C@H](NC(=O)Cc1ccccc1)C(=O)N[C@@H](CCCCN)C(=O)N[C@H](C(=O)NCC1CCCCC1)c1ccc(OCc2ccc(C(F)(F)F)cc2)cc1`, for which half-maximal inhibition (IC50) was put at 0.08 µM. As for `CN(Cc1ccccc1)C(=O)[C@H](CCCNC(=N)N)NC(=O)[C@H](CCCCN)NC(=O)[C@H](CCCCN)NC(=O)Cc1ccccc1`, the figure is 70 µM.

In turn, `NCCCC[C@H](NC(=O)Cc1ccccc1)C(=O)N[C@@H](CCCCN)C(=O)N[C@H](C(=O)NCc1cccnc1)c1ccc(OCc2ccc(C(F)(F)F)cc2)cc1` returned an IC50 of 0.28 µM. In the case of `N=C(N)NCCC[C@H](NC(=O)c1cccs1)C(=O)N[C@@H](CCCCN)C(=O)N[C@H](C(N)=O)c1ccc(OC2CCc3ccccc32)cc1` (mixture of isomers) it was 6.4 µM; in that of `N=C(N)NCCC[C@H](NC(=O)c1cccs1)C(=O)N[C@@H](CCCCN)C(=O)N[C@H](C(N)=O)c1ccc(OCc2ccncc2)cc1`, 12.1 µM. In the case of `NCCCC[C@H](NC(=O)c1cccs1)C(=O)N[C@@H](CCCCN)C(=O)N[C@H](C(=O)NCc1ccc(OCc2ccc(C(F)(F)F)cc2)cc1)c1ccccc1` it was 0.2 µM; in that of `N=C(N)NCCC[C@H](NC(=O)[C@H](CCCCN)NC(=O)[C@H](CCCCN)NC(=O)Cc1ccccc1)C(=O)NCCc1ccccc1` (PhAc-Lys-Lys-Arg-NHPhenethyl), 11.6 µM; in that of `N=C(N)NCCC[C@H](NC(=O)c1cccs1)C(=O)N[C@@H](CCCCN)C(=O)N[C@H](C(N)=O)c1ccc(OCc2ccc(C(F)(F)F)cc2)cc1`, 2.5 µM. In the case of `CN(C)CCOc1ccc([C@H](NC(=O)[C@H](CCCCN)NC(=O)[C@H](CCCNC(=N)N)NC(=O)c2cccs2)C(N)=O)cc1` it was 5.5 µM. Compound `N=C(N)CCCC[C@H](NC(=O)[C@H](CCCCN)NC(=O)[C@H](Cc1ccc(C(N)=O)cc1)NC(=O)Cc1ccccc1)C(N)=O` gave an IC50 of 42.3 µM. This IC50 is about 7.7-fold higher than that of the compound before. In the case of `NCCCC[C@H](NC(=O)Cc1ccccc1)C(=O)N[C@@H](CCCCN)C(=O)N[C@H](C(N)=O)c1ccccc1`, the midpoint of inhibition, the IC50, lay at 7 µM. As for `NCCCC[C@H](NC(=O)Cc1ccccc1)C(=O)N[C@@H](CCCCN)C(=O)N[C@H](C(=O)NCc1ccc(Cl)cc1)c1ccc(OCc2ccc(C(F)(F)F)cc2)cc1`, the figure is 0.16 µM. In the case of `NCCCC[C@H](NC(=O)Nc1ccccc1)C(=O)N[C@@H](CCCCN)C(=O)N[C@H](C(=O)NCc1ccccc1)c1ccc(OCc2ccc(C(F)(F)F)cc2)cc1` it was 0.16 µM. `NCCCC[C@H](NC(=O)Cc1ccccc1)C(=O)N[C@@H](CCCCN)C(=O)N[C@H](C(=O)NCc1cccc(OCc2ccc(C(F)(F)F)cc2)c1)c1ccccc1` gave an IC50 of 0.24 µM. In the case of `N=C(N)NCCC[C@H](NC(=O)c1cccs1)C(=O)N[C@@H](CCCCN)C(=O)NC(C(N)=O)c1ccc(-c2ccc(C(F)(F)F)cc2)cc1` (mixture of isomers) it was 6.1 µM.
